Laboratory results as given in paper PMC3726930, “Synthesis and Biological Activity of N-Sulfonyltripeptides with C-Terminal Arginine as Potential Serine Proteases Inhibitors” (International Journal of Peptide Research and Therapeutics, 2012).
Where two headings read alike, the source gives them in different places. Where a SMILES comes first, the peptide text is derived from it. [ ]: non-standard residue; d: D form. The star is where a group is joined. Ms = CS(=O)(=O)*

Experiments:
urokinase = urokinase (Homo sapiens, UniProt P00749); test: Amidolytic activity of urokinase, substrate S-2444; format: biochemical; settings: Ki calculated from IC50 by Cheng-Prusoff; triplicate; n.i. = no effect at maximum concentration 20 mM; read-out: Ki ± SD Urokinase S-2444
Experimental: Determination of amidolytic activity was performed as previously described (Okada et al. [1988]). The detailed description of the method is given below. The buffer and the enzyme solution included: • tris buffer—0.6 ml (pH 8.8),
enzyme: urokinase (50 U/ml),
synthetic substrate: S-2444 (0.1 ml, 3 mM); • (b) tris buffer—0.5 ml (pH 8.4),
(§1) Buffer and 0.1 ml of enzyme solution was added to 0.2 ml of examined compound dissolved in 0.15 M NaCl (1–17) (as control 0.15 M NaCl). The mixture was incubated for 3 min at 37 °C, then the synthetic substrate was added. After 20 min of incubation, the reaction was stopped by adding 0.1 ml of 50 % acetic acid, and the absorbance of the released p-nitroaniline was measured at 405 nm (Spekol 1300, AnalyticJena). Every value represents the average of the triplicate determination. IC50 value was considered as the concentration of the inhibitor, which decreased the absorbance at 405 nm by 50 %, compared with the absorbance measured under the same conditions without the inhibitor. Ki was calculated from IC50 based on Cheng–Prusoff equation (Cheng and Prusoff [1973]).

plasmin [1] = molecular target: T1, plasmin (Homo sapiens, UniProt P00747); test: Amidolytic activity of plasmin, substrate S-2251; format: biochemical; settings: Ki calculated from IC50 by Cheng-Prusoff; triplicate; read-out: Ki ± SD Plasmin S-2251
T1 construct: converts the pro-enzyme plasminogen into its active form plasmin; purchased Chromogenix (Milano, Italy)
Experimental: (§2) Determination of amidolytic activity was performed as previously described (Okada et al. [1988]). The detailed description of the method is given below. The buffer and the enzyme solution included: • tris buffer—0.6 ml (pH 8.8), […]
as §1, with “synthetic substrate: S-2238 (0.2 ml, 0.75 mM); • (c) tris buffer—0.5 ml (pH 7.4), enzyme: plasmin (0.4 U/ml), synthetic substrate: S-2251 (0.2 ml, 3 mM); • (d) […] buffer—0.5 ml (pH 7.5), Buffer” for “Buffer”

thrombin = thrombin (Bos taurus, UniProt P00735); test: Amidolytic activity of thrombin, substrate S-2238; format: biochemical; settings: Ki calculated from IC50 by Cheng-Prusoff, n.i. = no effect at maximum concentration 20 mM, read-out: Ki ± SD Thrombin
Experimental: as §2
as §1, with “synthetic substrate: S-2444 (0.1 ml, 3 mM); • (b) tris buffer—0.5 ml (pH 8.4), enzyme: thrombin (1 U/ml), synthetic substrate: S-2238 (0.2 ml, 0.75 mM); • (c) tris buffer—0.5 ml (pH 7.4), Buffer” for “Buffer”

plasmin [2] = molecular target: T1, plasmin; test: SPRI, immobilised inhibitor interacting with plasmin; format: binding; settings: plasmin 1 ng/ml
Source text: Gold chips were manufactured as described in previous papers (Gorodkiewicz [2009]; Gorodkiewicz and Regulska [2010]; Gorodkiewicz et al. [2011]). The gold surface of the chip was covered with photopolymer and hydrophobic paint. 9 × 12 free gold surfaces were obtained. Using this chip, nine different solutions can be simultaneously measured without mixing the tested solutions. Twelve single SPRI measurements can be performed from one solution.
Chips were rinsed with ethanol and water and dried under a stream of nitrogen. They were then immersed in 20 mM cysteamine ethanolic solutions for at least 2 h. The chips were then rinsed with ethanol and water and dried under a stream of nitrogen.
Among the synthesised compounds, four were selected for the examination of the interaction between the enzyme and the inhibitor. They were acids of peptides 10, 12, 13 and 14. Acids can be bound to a gold surface via cysteamine. […]
SPRI measurements with an application of an enzyme array were performed as described in previous papers (Gorodkiewicz [2009]; Gorodkiewicz and Regulska [2010]; Gorodkiewicz et al. [2011]). Briefly, the measurements were performed at a fixed angle of incident light and the reflectivity was simultaneously measured across an entire chip surface. […] The signal was measured twice on the basis of registered images, after immobilisation of enzymes and then after interaction inhibitors. […]

MDA-MB-231 cells = settings: 24 h
DLD cells = settings: 24 h
plasmin [3] = molecular target: T1, plasmin; settings: ref Lynas et al. [2001]; cited from earlier work

T1 sequence (P00747 581-810 limits assumed): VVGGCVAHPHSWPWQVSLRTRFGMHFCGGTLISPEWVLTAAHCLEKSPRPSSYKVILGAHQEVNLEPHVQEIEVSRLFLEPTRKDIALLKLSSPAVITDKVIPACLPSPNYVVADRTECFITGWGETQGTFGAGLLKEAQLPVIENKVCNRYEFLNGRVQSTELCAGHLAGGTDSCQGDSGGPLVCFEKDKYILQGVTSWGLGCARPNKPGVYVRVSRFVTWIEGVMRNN
T1 sequence (P00747 97-580 partner limits assumed): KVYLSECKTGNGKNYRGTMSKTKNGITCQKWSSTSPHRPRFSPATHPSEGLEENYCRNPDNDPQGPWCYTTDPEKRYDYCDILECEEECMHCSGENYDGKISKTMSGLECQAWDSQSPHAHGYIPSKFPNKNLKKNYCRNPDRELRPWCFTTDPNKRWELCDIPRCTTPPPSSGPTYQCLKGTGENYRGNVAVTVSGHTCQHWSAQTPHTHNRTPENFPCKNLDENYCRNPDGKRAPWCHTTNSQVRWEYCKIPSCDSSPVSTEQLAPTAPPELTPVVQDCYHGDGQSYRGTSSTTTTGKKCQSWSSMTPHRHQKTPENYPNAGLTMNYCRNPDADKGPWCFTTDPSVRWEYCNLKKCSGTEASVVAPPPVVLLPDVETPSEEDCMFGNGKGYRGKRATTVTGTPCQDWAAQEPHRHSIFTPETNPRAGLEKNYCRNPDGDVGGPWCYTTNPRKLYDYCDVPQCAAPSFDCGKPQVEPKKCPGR

Row | Ki (urokinase) | Ki (plasmin [1]) | Ki (thrombin) | Inhibitor concentration above which the SPRI signal plateaus (plasmin) (plasmin [2]; Langmuir isotherm type curve) | SPRI signal for plasmin after interaction with inhibitor (plasmin [2]; inhibitor 0.002-0.2 mM) | IC50 (MDA-MB-231 cells) | IC50 (DLD cells) | Compound | Ki (plasmin [3])
1 | 11.2 ± 0.89 µM | 10 ± 0.8 µM | > 20000 µM | above 0.02 mM | positive SPRI signal | 620 µM | 230 µM | CS(=O)(=O)N[C@H](CO)C(=O)NCC(=O)N[C@@H](CCCNC(=N)N)C(=O)O [Compound 12, CH3PhSO2-D-Ser-Gly-Arg-OH] (Ms-[dS]-Gly-Arg-OH; N-terminus and C-terminus assumed) | 
2 |  |  |  |  |  |  |  | Ac-Leu-Leu-Arg-COCHO | 4.9 µM
